The results in this text go back to ChEMBL document CHEMBL1151011, “Heterocyclic analogs of the benzolactam nucleus of the non-peptidic growth hormone secretagogue L-692,429” (1995).

Active and inactive are the calls of the source. No cut-off for these calls is given here.

For one test, the species on record is Rattus norvegicus. As to the kind of experiment: Effective dose of compound required for in vitro effect on growth hormone release was measured in rat pituitary cell assay. It is filed as functional, Pituitary gland cell. The following applies: Rattus norvegicus, Pituitary gland cell; read-out: ED50 (the source's name).
In the case of `CC(C)(N)CC(=O)NC1CCc2ccccc2N(Cc2ccc(-c3ccccc3-c3nn[nH]n3)cc2)C1=O` [L-158432], the EC50 is 0.12 µM. Consider `CC(C)(N)CC(=O)NC1Sc2ccccc2N(Cc2ccc(-c3ccccc3-c3nn[nH]n3)cc2)C1=O` (configuration not stated), for which the EC50 stood at 0.5 µM. Same read-out and setting: the result for `CC(C)(N)CC(=O)N[C@@H]1CC(=O)c2ccccc2N(Cc2ccc(-c3ccccc3-c3nn[nH]n3)cc2)C1=O` reads 2.7 µM; that for `CC(C)(N)CC(=O)NC1Cc2ccccc2N(Cc2ccc(-c3ccccc3-c3nn[nH]n3)cc2)C1=O` (configuration not stated), 2 µM; that for `CC(C)(N)CC(=O)N[C@@H]1CCc2ccccc2N(Cc2ccc(-c3ccccc3-c3nn[nH]n3)cc2)C1=O`, 0.06 µM. Same read-out and setting: in the case of `CC(C)(N)CC(=O)N[C@@H]1CC(O)c2ccccc2N(Cc2ccc(-c3ccccc3-c3nn[nH]n3)cc2)C1=O` (some centres not stated) it was 4 µM. Still for that read-out and setting: the result for `CC(C)(N)CC(=O)N[C@@H]1C[S+]([O-])c2ccccc2N(Cc2ccc(-c3ccccc3-c3nn[nH]n3)cc2)C1=O` (stereo in doubt) reads 3 µM.

As for `CC(C)(N)CC(=O)N[C@@H]1CS(=O)(=O)c2ccccc2N(Cc2ccc(-c3ccccc3-c3nn[nH]n3)cc2)C1=O`, the EC50 stood at 1 µM. Same read-out and setting: in the case of `CC(C)(N)CC(=O)N[C@@H]1COc2ccccc2N(Cc2ccc(-c3ccccc3-c3nn[nH]n3)cc2)C1=O` it was 0.12 µM; in that of `CC(C)(N)CC(=O)N[C@@H]1CSc2ccccc2N(Cc2ccc(-c3ccccc3-c3nn[nH]n3)cc2)C1=O`, 0.1 µM.

Still in this test, the particulars now being: read-out: ED50 (the source's name).
On to `CC(C)(N)CC(=O)N[C@@H]1C[S+]([O-])c2ccccc2N(Cc2ccc(-c3ccccc3-c3nn[nH]n3)cc2)C1=O` (stereo in doubt; 22a), for which the EC50 is 4 µM.

The species entered for the next test is Rattus norvegicus. The experiment in a line: Effective dose of compound required for in vitro effect on growth hormone release was measured in rat pituitary cell assay; IA means compound is inactive at 20 ug/mL concentration. It is filed as functional. The following applies: Pituitary gland cell.
Take `CC1=NC(NC(=O)CC(C)(C)N)C(=O)N(Cc2ccc(-c3ccccc3-c3nn[nH]n3)cc2)c2ccccc21` (configuration not stated): the ED50 result is “inactive”.
